Source: PMC9481570, “A small molecule antagonist of SMN disrupts the interaction between SMN and RNAP II” (Nature Communications, 2022)

Target: T1, tandem Tudor domain (TTD) of UHRF1 (Homo sapiens, UniProt Q96T88)
T1 construct: UHRF1 (aa 126–285); His (N, cleaved yes); made in house; host or cells: E. coli BL21 (DE3) Codon plus RIL
Test: Fluorescein polarization-based peptide displacement screen
Format: binding
Settings: 2 mM compound, 8 μM UHRF1 TTD, 40 nM FITC-H3K9me3 peptide; hit = signal less than 50% of negative control
Protocol: A small molecule fragment library with 2040 compounds was screened against TTD of UHRF1 by fluorescein polarization-based peptide displacement assay according to previous reports. Briefly, the screening was performed in 10 μL at a protein concentration of 8 μM premixed with a 40 nM FITC-labeled H3K9me3 peptide (aa 1–25, Tufts University Core Services), and then adding a single concentration of 2 mM compound in a buffer of 20 mM Tris-HCl, pH 8.8, 50 mM NaCl, and 0.01% Triton X-100. The hits were further confirmed by dose response analysis with 1 mM as the highest concentration with 11 sequential 2-fold dilutions. All the assays were performed in duplicate in 384-well plates (Greiner, 784290), using the Synergy 4 microplate reader (BioTek), with an excitation wavelength of 485 nm and an emission wavelength of 528 nm. Data were corrected by background of the free labeled peptides and analyzed by GraphPad Prism version 5 software. […]
Tris -HCl, pH 8.8, 50 mM NaC l, and 0.01% Triton X - 100. […] All the assays were performed in duplicate in 384 -well plates (Greiner, 784290), usi ng the Synergy 4 microplate reader (BioTek), with an excitation wavelength of 485 nm and an emission wavelength of 528 nm. Data were corrected by background of the free labeled peptides and analyzed by GraphPad […]
Detection instrument and software Synergy 4 microplate reader (BioTek), GraphPad […]

T1 sequence (Q96T88 126-285): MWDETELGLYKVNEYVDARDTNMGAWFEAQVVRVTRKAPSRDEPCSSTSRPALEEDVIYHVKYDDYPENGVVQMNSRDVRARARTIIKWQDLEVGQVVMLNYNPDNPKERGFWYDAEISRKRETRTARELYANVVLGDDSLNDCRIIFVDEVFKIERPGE

For Cn1c2c(c(=N)c3c1CCC3)CCC2 [Compound 1, 4-methyl-2,3,4,5,6,7-hexahydrodicyclopenta[b,e]pyridin-8(1H)-imine], the “outcome of fragment screen” value was “hit”.
